Measured values taken from patent US20240174728A1, “A USE OF A POLYPEPTIDE COMPOUND IN THE PREPARATION OF DRUGS FOR PREVENTING OR TREATING INFLAMMATORY BOWEL DISEASES AND RELATED INTESTINAL FIBROSIS” (Shenzhen Turier Biotech Co., Ltd., priority 2021, published 2024).
Starred links: 1 amine or outer side, 2 acyl side, 3 side chain; linkers in the order of their positions; H or OH if unused. Non-standard residues stand in square brackets, D forms with d. Groups on a side chain read outwards from the residue. Primed or numbered codes have the meaning given here. No end group written: not given here. *: point of attachment. C20 diacid = O=C(O)CCCCCCCCCCCCCCCCCCC(=O)*; Arachidoyl = CCCCCCCCCCCCCCCCCCCC(=O)*; γGlu = O=C(O)[C@H](CCC(=O)[*:2])N[*:1]; Iva = CC[C@](C)(N)C(=O)O; PEG2′ = not defined here; Aib = CC(C)(N)C(=O)O

Columns and labels:
[1] = tested on: DSS induced acute intestinal fibrosis model of mouse; assay: DSS induced acute intestinal fibrosis model of mouse (Example 2); format: in vivo, Balb/c mice; settings: 3% DSS Day 1-7, compared with model group; for content of serum IL-6 (FIG. 7) / content of serum MMP-12 (FIG. 7) / collagenous fiber of colon tissues, Masson stained slice (FIG. 4A) / colon Ly-6g+ cells (neutrophile granulocyte infiltration), immunohistochemical staining (FIG. 6) / colon mucous layer α-SMA protein expression, immunohistochemical staining (FIG. 5): 120 μg/kg s.c. once/day; for content of serum IL-6 (FIG. 7) / content of serum MMP-12 (FIG. 7): 9th day serum, ##P≤0.01; for colon tissue morphology, HE stained slice (FIG. 3) / blue staining area of colon tissues, area ratio of blue collagen fibers to colon tissue in Masson staining (FIG. 4B): polypeptide 120 μg/kg s.c. or 6-TG 2 mg/kg p.o. once/day; for blue staining area of colon tissues, area ratio of blue collagen fibers to colon tissue in Masson staining (FIG. 4B): #P≤0.05
Source text: The DSS in this example is purchased from MP Biomedicals (CAS No.: 9011-18-1), and the positive control compound 6-thioguanine (6-TG) is a compound based on prior art and is purchased from Shanghai Aladdin Biochemical Technology Co., Ltd. (CAS No.: 154-42-7).
(§1) After 7 days of adaptive feeding, 114 Balb/c mice of 6-8 weeks age (purchased from Guangdong Medical Laboratory Animal Center, with weight approx. 16-20 g) are subjected to the experiment. Then randomly put the mice into 19 groups, with 6 mice in each group. The groups are normal group, model group, 6-TG group and polypeptide compound groups 1-16.
Model the 19 groups of mice and administer the drug to them for 8 days. In the 8 days, the normal group is given normal drinking water and is given subcutaneous injection of PBS once every day. From Day 1 to Day 7, the model group drinks 3% DSS and is given subcutaneous injection of PBS once every day. On Day 8, 3% DSS is replaced with normal drinking water and subcutaneous injection of PBS is given once. From Day 1 to Day 7, the 6-TG group drinks 3% DSS and is given 2 mg/kg 6-TG by the means of gavage once every day. On Day 8, 3% DSS is replaced with normal drinking water and 2 mg/kg 6-TG is given by the means of gavage once. From Day 1 to Day 7, the polypeptide compound groups 1-16 drink 3% DSS and are given subcutaneous injection of 120 μg/kg polypeptide compounds 1-16 once every day. On Day 8, 3% DSS is replaced with normal drinking water and subcutaneous injection of 120 μg/kg polypeptide compounds 1-16 is given once.
In the drug administration period, the randomly selected polypeptide compound groups 3, 8, 11, 12, 13 and 14 and the normal group, model group and 6-TG group are used for testing, and the body weight, feces consistency and feces OB of the mice are recorded every day. The GraphPad Prism 8.3.0 software is used to plot the data into a diagram. Feces OB is measured by the benzidine method.
On the 9th day, all mice are killed. The serums and colon tissues of the mice are collected. The colon and cecum of the mice are removed together. The colon length is measured. The GraphPad Prism 8.3.0 software is used to plot the data into a diagram.
The serums of the mice from the randomly selected polypeptide compound groups 3, 8, 11, 12, 13 and 14 of the present invention and the normal group and model group are used for cytokine test.
The colons of the mice from the randomly selected polypeptide compound groups 3, 8, 11, 12, 13 and 14 and the normal group, model group and 6-TG group in the present invention are taken. Approx. 5 mm of intestinal segment is taken from the distal end of each colon and is fixed in 10% formalin. The specimens are fixed, dehydrated, wrapped in paraffin and sliced (5 μm). Then tissue HE staining, Masson staining, α-SMA α-SMA protein immunohistochemical staining and Ly-6g protein immunohistochemical staining are completed.

[2] = tested on: DSS induced chronic intestinal fibrosis model of mouse; assay: DSS induced chronic intestinal fibrosis model of mouse (Example 3, three cycles); format: in vivo, Balb/c mice; settings: 2% DSS 5 days then water 2 weeks, 3 cycles, 120 μg/kg s.c. once/day, compared with model group; for blue staining area of colon tissues, area ratio of blue collagen fibers to colon tissue in Masson staining (FIG. 11B): #P≤0.05, ##P≤0.01; for content of serum IL-6 (FIG. 13) / content of serum MMP-8 (FIG. 13): serum at end of three cycles
Source text: as §1
In the whole process, the normal group is given normal drinking water and is given subcutaneous injection PBS once every day. The model group is first given 2% DSS for 5 days and then given normal drinking water for 2 weeks. This is 1 cycle. The cycle is done 3 times. Subcutaneous injection of PBS is given once every day. The 6-TG group is first given 2% DSS for 5 days and then given normal drinking water for 2 weeks. This is 1 cycle. The cycle is done 3 times. 2 mg/kg 6-TG is given by the means of gavage once every day. The polypeptide compound groups 1-16 are first given 2% DSS for 5 days and then given normal drinking water for 2 weeks. This is 1 cycle. The cycle is done 3 times. Subcutaneous injection of 120 μg/kg polypeptide compounds 1-16 is given once every day.
During the administration period, the polypeptide compound groups 3, 8, 11, 12, 13 and 14 and the normal group, model group and 6-TG group are randomly selected, and the body weight, feces consistency and feces OB of the mice are recorded every day. The GraphPad Prism 8.3.0 software is used to plot the data into a diagram.
After completion of the 3rd cycle, the mice are dissected. The serums and colon tissues of the mice are collected. The colon and cecum are removed together. The colon length is measured. The GraphPad Prism 8.3.0 software is used to plot the data into a diagram.
The serums of the mice from the randomly selected polypeptide compound groups 3, 8, 11, 12, 13 and 14 and the normal group and model group of the present invention are used for cytokine test.
The colons of the mice from the randomly selected polypeptide compound groups 3, 8, 11, 12, 13 and 14 and the normal group and model group in the present invention are taken. Approx. 5 mm of intestinal segment is taken from the distal end of each colon and is fixed in 10% formalin. The specimens are fixed, dehydrated, wrapped in paraffin and sliced (5 μm). Then tissue HE staining, Masson staining and Fibronectin protein immunohistochemical staining are completed.

Substance	content of serum IL-6 (FIG. 7) [1]	content of serum MMP-12 (FIG. 7) [1]	collagenous fiber of colon tissues, Masson stained slice (FIG. 4A) [1]	colon Ly-6g+ cells (neutrophile granulocyte infiltration), immunohistochemical staining (FIG. 6) [1]	colon mucous layer α-SMA protein expression, immunohistochemical staining (FIG. 5) [1]	colon tissue morphology, HE stained slice (FIG. 3) [1]	blue staining area of colon tissues, area ratio of blue collagen fibers to colon tissue in Masson staining (FIG. 4B) [1]	collagenous fiber of colon tissues, Masson stained slice (FIG. 11A) [2]	colon mucous layer Fibronectin protein expression, immunohistochemical staining (FIG. 12) [2]	colon tissue morphology, HE stained slice (FIG. 10) [2]	blue staining area of colon tissues, area ratio of blue collagen fibers to colon tissue in Masson staining (FIG. 11B) [2]	content of serum IL-6 (FIG. 13) [2]	content of serum MMP-8 (FIG. 13) [2]
His-(D-Ser)-Gln-Gly-Thr-Phe-Thr-Ser-Asp-Lys(PEG2-PEG2-γGlu-CO(CH2)18CO2H)-Ser-Lys-Tyr-Leu-Glu-Aib-Lys-Ala-Ala-Gln-Asp-Phe-Val-Glu-Trp-Leu-Lys-Ala-Gly-Gly-Pro-Ser-Ser-Gly-Ala-Pro-Pro-Pro-Ser-NH2 (H[dS]QGTFTSDK([PEG2′-PEG2′-γGlu-C20 diacid])SKYLE[Aib]KAAQDFVEWLKAGGPSSGAPPPS-NH2) [Compound 3]	clearly decreases	clearly decreases	noticeably decrease	clearly decrease	clearly decreased	become intact	noticeably decrease	noticeably decrease	clearly decreased	become intact	noticeably decrease	clearly decreases	clearly decreases
His-Aib-Gln-Gly-Thr-Phe-Thr-Ser-Asp-Lys(PEG2-PEG2-CO(CH2)18CH3)-Ser-Lys-Tyr-Leu-Asp-Glu-Arg-Ala-Ala-Gln-Asp-Phe-Iva-Gln-Trp-Leu-Leu-Asp-Gly-Gly-Pro-Ser-Ser-Gly-Aib-Pro-Pro-Pro-Ser-NH2 (H[Aib]QGTFTSDK([PEG2′-PEG2′-Arachidoyl])SKYLDERAAQDF[Iva]QWLLDGGPSSG[Aib]PPPS-NH2; not fully specified; printed as His-Aib-Gln-Gly-Thr-Phe-Thr-Ser-Asp-Lys(PEG2-PEG2-CO(CH2)18CH3)-Ser-Lys-Tyr-Leu-Asp-Glu-Arg-Ala-Ala-Gln-Asp-Phe-Iva-Gln-Trp-Leu-Leu-Asp-Gly-Gly-Pro-Ser-Ser-Gly-Aib-Pro-Pro-Pro-Ser-NH2) [Compound 11]	clearly decreases	clearly decreases	noticeably decrease	clearly decrease	clearly decreased	become intact	noticeably decrease	noticeably decrease	clearly decreased	become intact	noticeably decrease	clearly decreases	clearly decreases
His-Aib-Gln-Gly-Thr-Phe-Thr-Ser-Asp-Lys(PEG2-PEG2-γGlu-CO(CH2)18CO2H)-Ser-Lys-Tyr-Leu-Asp-Glu-Arg-Ala-Ala-Gln-Asp-Phe-Iva-Gln-Trp-Leu-Leu-Asp-Gly-Gly-Pro-Ser-Ser-Gly-Aib-Pro-Pro-Pro-Ser-NH2 (H[Aib]QGTFTSDK([PEG2′-PEG2′-γGlu-C20 diacid])SKYLDERAAQDF[Iva]QWLLDGGPSSG[Aib]PPPS-NH2) [Compound 8]	clearly decreases	clearly decreases	noticeably decrease	clearly decrease	clearly decreased	become intact	noticeably decrease	noticeably decrease	clearly decreased	become intact	noticeably decrease	clearly decreases	clearly decreases
